This is an account of results in PMC10017042 (Science Advances, 2023).

Like-named read-outs stand apart in the source and are kept apart here.

Data set [1] in a line: Plasma drug concentrations (pyrimethamine UPLC-MS/MS, VPA assay, unbound dolutegravir) in trial participants. The format is in vivo, human. The conditions noted are these: human, plasma, 6 hours, read-out: Median unbound dolutegravir concentration. The procedure:
Self-reported adherence was assessed at each study visit, and empty pill strips were collected after the 2-week intervention phase. […] A gradient (0.3 ml/min) with two eluents was used (A: 2 mM ammonium acetate + 0.1% formic acid in water; B: 2 mM ammonium acetate + 0.1% formic acid in methanol). […] For measurement validation, we performed linearity, correctness, LOD and lower LOQ, repeatability, reproducibility, measurement uncertainty, robustness, and carryover. […] Unbound dolutegravir plasma concentrations were quantified with a validated UPLC-MS/MS bioquantification method as previously described ([61]).

The subject of the next data set is HIV-1. The settings on record: cited from earlier work.

Take `C[C@@H]1CCO[C@H]2Cn3cc(C(=O)NCc4ccc(F)cc4F)c(=O)c(O)c3C(=O)N12` [dolutegravir]: the concentration at 6 h came to 11.7 ng/mL in data set [1] (those with pyrimethamine exposure) and 10.1 ng/mL in data set [1] (those without pyrimethamine exposure).

In the case of `O=C(CCCCCCC(=O)Nc1ccccc1)NO` [vorinostat], in the data set with HIV-1 (at time points during vorinostat), the “Mean fold increase in CA US HIV-1 RNA” value is 2.6 fold. Also, the HIV-1 reactivation entry in the data set on HIV-1 (combined with a T cell-inducing HIV-1 vaccine in PLWH who initiated cART during acute HIV-1) is recorded as “No reactivation”. In addition, the “Fold change in CA US HIV-1 RNA” value in the data set on HIV-1 (vorinostat treatment in postmenopausal women) is given as 1.5 fold.

Regarding `C/C=C1\NC(=O)[C@H]2CSSCC/C=C/[C@H](CC(=O)N[C@H](C(C)C)C(=O)N2)OC(=O)[C@H](C(C)C)NC1=O` [romidepsin], in the data set on HIV-1 (additional pharmacodynamics studies), the “Effect on HIV-1 transcription” value was “no significant effect”. Further, the “Increase in CA US HIV-1 RNA” value in the data set on HIV-1 (initial studies) is reported as “approximately threefold”.
